In patent US11713335B2, “Aminocoumarin compounds and methods of their use” (President and Fellows of Harvard College, priority 2018, dated 2023):
In brackets after ≈: the same amount, converted by molar mass. Read-outs that look alike come from different tables or passages of the source.

Assays:
Type in all cases: cell-based
[1] = system: E. coli 25922; assay: Minimal inhibitory concentration, E. coli 25922; settings: 16 hour minimal inhibitory concentration at 37° C., read-out: MIC (μM) E. coli 25922
Procedure, shortened: (§1)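 Growth at 600 nm after 16 h at 37 °C without shaking defines the MIC, taken as the lowest compound concentration that prevents growth and expressed in µM. Cultures grown to saturation in LB, or TSA for S. aureus, were diluted 1:100 twice before twofold serial compound dilution.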

[2] = system: A. baumannii 19606; assay: Minimal inhibitory concentration, A. baumannii 19606; settings: 16 hour minimal inhibitory concentration at 37° C., read-out: MIC (μM) A. baumannii 19606
Procedure, shortened: as §1

[3] = system: K. pneumoniae 700721; assay: Minimal inhibitory concentration, K. pneumoniae 700721; settings: 16 hour minimal inhibitory concentration at 37° C., read-out: MIC (μM) K. pneumoniae 700721
Procedure, shortened: as §1

[4] = system: S. aureus RN4220; assay: Minimal inhibitory concentration, S. aureus RN4220; settings: 16 hour minimal inhibitory concentration at 37° C., read-out: MIC (μM) S. aureus RN4220
Procedure, shortened: as §1

[5] = system: S. aureus MW2; assay: Minimal inhibitory concentration, S. aureus MW2; settings: 16 hour minimal inhibitory concentration at 37° C., read-out: MIC (μM) S. aureus MW2 (MRSA)
Procedure, shortened: as §1

[6] = system: E. cloacae 13047; assay: Minimal inhibitory concentration, E. cloacae 13047; settings: 16 hour minimal inhibitory concentration at 37° C., read-out: MIC (μM) E. cloacae 13047
Procedure, shortened: as §1

[7] = system: E. coli MC4100; assay: Minimal inhibitory concentration, E. coli MC4100; settings: 16 hour minimal inhibitory concentration at 37° C., read-out: MIC (μM) E. coli MC4100 ara+
Procedure, shortened: as §1

[8] = Acinetobacter baumannii, 19606, 16 h
[9] = Staphylococcus aureus, RN4220, 16 h
[10] = Staphylococcus aureus, MRSA, 16 h

CO[C@@H]1[C@@H](OC(N)=O)[C@@H](O)[C@H](Oc2ccc3c(OCc4ccccc4)c(NC(=O)c4ccc(O)c(CC=C(C)C)c4)c(=O)oc3c2C)OC1(C)C [Compound 211]
MIC ([1]; Escherichia coli, 25922, 16 h): > 200 µM | MIC [2, 8]: > 50 µM | MIC ([3]; Klebsiella pneumoniae, 700721): > 100 µM | MIC [4, 9]: > 100 µM | MIC [5, 10]: > 100 µM | MIC ([6]; Enterobacter cloacae, 13047): > 100 µM | MIC ([7]; Escherichia coli, MC4100, 16 h): > 200 µM

CO[C@@H]1[C@@H](OC(N)=O)[C@@H](O)[C@H](Oc2ccc3c(O)c(NC(=O)c4cccc(Nc5ccccc5)c4)c(=O)oc3c2C)OC1(C)C [Compound 218]
MIC ([1]; Escherichia coli, 25922, 16 h): 161 µM (≈ 99.8 µg/mL) | MIC [2, 8]: > 50 µM | MIC ([3]; Klebsiella pneumoniae, 700721): > 100 µM | MIC [4, 9]: 10 µM (≈ 6.2 µg/mL) | MIC [5, 10]: 10 µM (≈ 6.2 µg/mL) | MIC ([6]; Enterobacter cloacae, 13047): > 100 µM | MIC ([7]; Escherichia coli, MC4100, 16 h): 80 µM (≈ 49.6 µg/mL)

CO[C@@H]1[C@@H](O)[C@@H](OC(=O)NC(C)C)[C@H](Oc2ccc3c(O)c(NC(=O)c4ccc(O)c(CC=C(C)C)c4)c(=O)oc3c2C)OC1(C)C [Compound 105]
MIC [1]: >200 µM | MIC [2]: >50 µM | MIC [3]: >100 µM | MIC [4]: >100 µM | MIC [5]: >100 µM | MIC [6]: >100 µM | MIC [7]: >200 µM

CO[C@@H]1[C@@H](OC(N)=O)[C@@H](O)[C@H](Oc2ccc3c(O)c(NS(=O)(=O)c4cccc(-c5ccccc5)c4)c(=O)oc3c2C)OC1(C)C [Compound 202]
MIC ([1]; Escherichia coli, 25922, 16 h): > 200 µM | MIC [2, 8]: > 50 µM | MIC ([3]; Klebsiella pneumoniae, 700721): > 100 µM | MIC [4, 9]: > 100 µM | MIC [5, 10]: > 100 µM | MIC ([6]; Enterobacter cloacae, 13047): > 100 µM | MIC ([7]; Escherichia coli, MC4100, 16 h): > 200 µM

CO[C@@H]1[C@@H](OC(N)=O)[C@@H](O)[C@H](Oc2ccc3c(O)c(NC(=O)OC(C)(C)C)c(=O)oc3c2C)OC1(C)C [Compound 209]
MIC ([1]; Escherichia coli, 25922, 16 h): > 200 µM | MIC [2, 8]: > 50 µM | MIC ([3]; Klebsiella pneumoniae, 700721): > 100 µM | MIC [4, 9]: > 100 µM | MIC [5, 10]: > 100 µM | MIC ([6]; Enterobacter cloacae, 13047): > 100 µM | MIC ([7]; Escherichia coli, MC4100, 16 h): > 200 µM

CO[C@@H]1[C@@H](OC(=O)Nc2ccccc2)[C@@H](O)[C@H](Oc2ccc3c(O)c(NC(=O)c4cccc(-c5ccc6ccccc6c5)c4)c(=O)oc3c2C)OC1(C)C [Compound 205]
MIC ([1]; Escherichia coli, 25922, 16 h): > 200 µM | MIC [2, 8]: > 50 µM | MIC ([3]; Klebsiella pneumoniae, 700721): > 100 µM | MIC [4, 9]: 9 µM (≈ 6.58 µg/mL) | MIC [5, 10]: 9 µM (≈ 6.58 µg/mL) | MIC ([6]; Enterobacter cloacae, 13047): > 100 µM | MIC ([7]; Escherichia coli, MC4100, 16 h): > 200 µM

CO[C@@H]1[C@@H](OC(N)=O)[C@@H](O)[C@H](Oc2ccc3c(O)c(NC(=O)c4cccc(Oc5ccccc5Cl)c4)c(=O)oc3c2C)OC1(C)C [Compound 246]
MIC ([1]; Escherichia coli, 25922, 16 h): 76 µM (≈ 49.8 µg/mL) | MIC [2, 8]: > 50 µM | MIC ([3]; Klebsiella pneumoniae, 700721): > 100 µM | MIC [4, 9]: 10 µM (≈ 6.55 µg/mL) | MIC [5, 10]: 5 µM (≈ 3.28 µg/mL) | MIC ([6]; Enterobacter cloacae, 13047): > 100 µM | MIC ([7]; Escherichia coli, MC4100, 16 h): 79 µM (≈ 51.7 µg/mL)

CO[C@@H]1[C@@H](OC(N)=O)[C@@H](O)[C@H](Oc2ccc3c(O)c(NC(=O)c4cccc(Oc5cccc(Cl)c5)c4)c(=O)oc3c2C)OC1(C)C [Compound 245]
MIC ([1]; Escherichia coli, 25922, 16 h): 76 µM (≈ 49.8 µg/mL) | MIC [2, 8]: > 50 µM | MIC ([3]; Klebsiella pneumoniae, 700721): > 100 µM | MIC [4, 9]: 10 µM (≈ 6.55 µg/mL) | MIC [5, 10]: 19 µM (≈ 12.4 µg/mL) | MIC ([6]; Enterobacter cloacae, 13047): > 100 µM | MIC ([7]; Escherichia coli, MC4100, 16 h): 38 µM (≈ 24.9 µg/mL)

CO[C@@H]1[C@@H](O)[C@@H](OC(=O)c2cccn2C)[C@H](Oc2ccc3c(O)c(NC(=O)c4ccc(O)c(CC=C(C)C)c4)c(=O)oc3c2C)OC1(C)C [Compound 114]
MIC [1]: >200 µM | MIC [2]: >50 µM | MIC [3]: >100 µM | MIC [4]: 74 µM (≈ 50.1 µg/mL) | MIC [5]: 74 µM (≈ 50.1 µg/mL) | MIC [6]: >100 µM | MIC [7]: >200 µM

COc1ccc(C(=O)Nc2c(O)c3ccc(O[C@@H]4OC(C)(C)[C@H](OC)[C@@H](OC(N)=O)[C@H]4O)c(C)c3oc2=O)cc1Oc1ccccc1 [Compound 256]
MIC ([1]; Escherichia coli, 25922, 16 h): 10 µM (≈ 6.51 µg/mL) | MIC [2, 8]: > 50 µM | MIC ([3]; Klebsiella pneumoniae, 700721): 19 µM (≈ 12.4 µg/mL) | MIC [4, 9]: 19 µM (≈ 12.4 µg/mL) | MIC [5, 10]: 19 µM (≈ 12.4 µg/mL) | MIC ([6]; Enterobacter cloacae, 13047): > 100 µM | MIC ([7]; Escherichia coli, MC4100, 16 h): 10 µM (≈ 6.51 µg/mL)

COc1cccc(-c2cccc(C(=O)Nc3c(O)c4ccc(O[C@@H]5OC(C)(C)[C@H](OC)[C@@H](OC(N)=O)[C@H]5O)c(C)c4oc3=O)c2)c1 [Compound 103]
MIC [1]: >200 µM | MIC [2]: 9 µM (≈ 5.71 µg/mL) | MIC [3]: >100 µM | MIC [4]: 36 µM (≈ 22.8 µg/mL) | MIC [5]: 36 µM (≈ 22.8 µg/mL) | MIC [6]: >100 µM | MIC [7]: >200 µM
